In patent US9682976B2, “Protein kinase C inhibitors and uses thereof” (Rigel Pharmaceuticals, Inc., priority 2012, dated 2017):

What follows are compounds tested on PKC mediated IL-2 production (assay: IL-2 ELISA, human primary T cell, anti CD3+CD28+). Conditions: Homo sapiens, T-cell, 24 h, human primary T cells stimulated with αCD3 and αCD28, 24 hours.
Assay type: cell-based
In short: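 IL-2 was quantified by ELISA in 24 h supernatants from primary human T cells given a 1 h compound pre-treatment at 37° C. These cells had been expanded from blood mononuclear cells on αCD3/αCD28 with IL-2, and the IL-2 was removed by washing. Stimulation used plate-bound αCD3 ([…]) plus αCD28 (5 μg/ml); the counter assay used PMA (0.5 ng/ml) with ionomycin (0.1 uM) instead.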

SMILES | EC50
Cn1nc2n(c1=O)-c1cc(Nc3ncc(F)c(N[C@@H]4C[C@@H]5CCCN5C(C)(C)C4)n3)ccc1OC2 [Compound 291, 5-fluoro-N2-(1H-2,4-dihydron-2-methyl-[1,2,4]triazolo[3,4-c][1,4]benzoxazin-1-one-8-yl)-N4-((7R,8aS)-octahydro-5,5-dimethylindolizin-7-yl)pyrimidine-2,4-diamine] | 100 to 500 nM
Cn1nc2n(c1=O)-c1cc(Nc3ncc(F)c(N[C@@H]4C[C@@H]5CCCN5C(C)(C)C4)n3)ccc1OCC2(C)O (stereo partly drawn) [Compound 292, 5-fluoro-N2-(1H-2,3,4,5-tetrahydron-2,4-dimethyl-4-hydroxy-[1,2,4]triazolo[4,5-c][1,5]benzoxazepin-1-one-9-yl)-N4-((7R,8aS)-octahydro-5,5-dimethylindolizin-7-yl)pyrimidine-2,4-diamine] | 500 to 1000 nM
Cn1nc2n(c1=O)-c1cc(Nc3ncc(F)c(N[C@@H]4C[C@@H]5CCCN5C(C)(C)C4)n3)ccc1OC21COC1 [Compound 293, 5-fluoro-N2-(1H-2,4-dihydron-spiro(2H-1,4-benzoxazine-4,3′-[3H]oxetan)-2-methyl-[1,2,4]triazolo[3,4-c][1,4]benzoxazin-1-one-8-yl)-N4-((7R,8aS)-octahydro-5,5-dimethylindolizin-7-yl)pyrimidine-2,4-diamine] | 100 to 500 nM
COCC1(COC)Oc2ccc(Nc3ncc(F)c(N[C@@H]4C[C@@H]5CCCN5C(C)(C)C4)n3)cc2-n2c1nn(C)c2=O [Compound 296, 5-fluoro-N2-(1H-2,4-dihydron-2-methyl-4,4-di(methoxymethyl)[1,2,4]triazolo[3,4-c][1,4]benzoxazin-1-one-8-yl)-N4-((7R,8aS)-octahydro-5,5-dimethylindolizin-7-yl)pyrimidine-2,4-diamine] | 500 to 1000 nM
CC1(C)CC[C@H]2C[C@@H](Nc3nc(Nc4cc(-n5nnnc5C5COC5)c(C5CC5)cc4F)ncc3F)CCN21 [Compound 301, N2-(4-Cyclopropyl-2-fluoro-5-(5-(oxetan-3-yl)-1H-tetrazol-1-yl)phenyl)-N4-((7S,8aS)-3,3-dimethyloctahydroindolizin-7-yl)-5-fluoropyrimidine-2,4-diamine] | < 100 nM
CC1(C)CC[C@H]2C[C@@H](Nc3nc(Nc4ccc(OC5CC(O)C5)c(C#N)c4)ncc3F)CCN21 (some centres unmarked) [Compound 304] | 100 to 500 nM
[2H]C1(Oc2ccc(Nc3ncc(F)c(N[C@H]4CCN5[C@@H](CCC5(C)C)C4)n3)cc2-n2nnn(C)c2=O)CC(O)C1 (stereo partly drawn) [Compound 309, 1-(5-((4-(((7S,8aS)-3,3-Dimethyloctahydroindolizin-7-yl)amino)-5-fluoropyrimidin-2-yl)amino)-2-(3-hydroxycyclobutoxy-1-d)phenyl)-4-methyl-1,4-dihydro-5H-tetrazol-5-one] | 100 to 500 nM
CC1(C)CC[C@H]2C[C@@H](Nc3nc(Nc4ccc(OC5CC(OCc6ccccc6)C5)c(Cl)c4)ncc3F)CCN21 (stereo partly drawn) [Compound 310, N2-(4-(3-(Benzyloxy)cyclobutoxy)-3-chlorophenyl)-N4-((7S,8aS)-3,3-dimethyloctahydroindolizin-7-yl)-5-fluoropyrimidine-2,4-diamine] | 1000 to 10000 nM
[2H]C1(Oc2ccc(Nc3ncc(F)c(N[C@H]4CCN5[C@@H](CCC5(C)C)C4)n3)cc2Cl)CC(OCc2ccccc2)C1 (stereo partly drawn) [Compound 311, N2-(4-(3-(benzyloxy)cyclobutoxy-1-d)-3-chlorophenyl)-N4-((7S,8aS)-3,3-dimethyloctahydroindolizin-7-yl)-5-fluoropyrimidine-2,4-diamine] | 1000 to 10000 nM
[2H]C1(Oc2ccc(Nc3ncc(F)c(N[C@H]4CCN5[C@@H](CCC5(C)C)C4)n3)cc2Cl)CC(O)C1 (stereo partly drawn) [Compound 313, 3-(2-Chloro-4-((4-(((7S,8aS)-3,3-dimethyloctahydroindolizin-7-yl)amino)-5-fluoropyrimidin-2-yl)amino)phenoxy)cyclobutan-3-d-1-ol] | 100 to 500 nM
C[C@@H](O)COc1cc(F)c(Nc2ncc(C#N)c(N[C@@H]3C[C@@H]4CCCN4C(C)(C)C3)n2)cc1-n1nnn(C)c1=O [Compound 314, 4-((7R,8aS)-octahydro-5,5-dimethylindolizin-7-ylamino)-2-(4-((R)-2-hydroxypropoxy)-2-fluoro-5-(4,5-dihydro-4-methyl-5-oxotetrazol-1-yl)phenylamino)pyrimidine-5-carbonitrile] | 100 to 500 nM
CN1C(=O)COc2ccc(Nc3ncc(F)c(N[C@@H]4C[C@@H]5CCCN5C(C)(C)C4)n3)cc21 [Compound 315] | 1000 to 10000 nM
COCC1(COC)Oc2ccc(Nc3ncc(F)c(N[C@@H]4C[C@@H]5CCCN5C(C)(C)C4)n3)cc2-n2nnnc21 [Compound 316, N^2-(4,5-dihydro-4,4-bis(methoxymethyl)tetrazolo[5,1-c][1,4]benzoxazin-8-yl)-N^4-((7R,8aS)-octahydro-5,5-dimethylindolizin-7-yl)-5-fluoropyrimidin-2,4-diamine] | < 100 nM
CN1C(=O)C(C)(C)Oc2ccc(Nc3ncc(F)c(N[C@@H]4C[C@@H]5CCCN5C(C)(C)C4)n3)cc21 [Compound 318] | 500 to 1000 nM
COCCN1C(=O)C(C)(C)Oc2ccc(Nc3ncc(F)c(N[C@@H]4C[C@@H]5CCCN5C(C)(C)C4)n3)cc21 [Compound 319] | 1000 to 10000 nM
COC(=O)c1ccc(Nc2ncc(F)c(N[C@@H]3C[C@@H]4CCCN4C(C)(C)C3)n2)cc1C(F)(F)F [Compound 320] | 100 to 500 nM
CC1(C)C[C@H](Nc2nc(Nc3ccc(NCC(O)CCl)c(C(F)(F)F)c3)ncc2F)C[C@@H]2CCCN21 (stereo partly drawn) [Compound 321, 1-(4-(4-((7R,8aS)-octahydro-5,5-dimethylindolizin-7-ylamino)-5-fluoropyrimidin-2-ylamino)-2-(trifluoromethyl)phenylamino)-3-chloropropa-2-ol] | 100 to 500 nM

Continued, values first:

EC50 | SMILES
100 to 500 nM | CC1(C)CC[C@H]2C[C@@H](Nc3nc(Nc4ccc(N5CCOCC5)c(OC(F)F)c4)ncc3F)CCN21 [Compound 297]
100 to 500 nM | CC1(C)CC[C@H]2C[C@@H](Nc3nc(Nc4ccc(OC5COC5)c(OC(F)F)c4)ncc3F)CCN21 [Compound 298, N2-(3-(Difluoromethoxy)-4-(oxetan-3-yloxy)phenyl)-N4-((7S,8aS)-3,3-dimethyloctahydroindolizin-7-yl)-5-fluoropyrimidine-2,4-diamine]
100 to 500 nM | COc1ccc(Nc2ncc(F)c(N[C@H]3CCN4[C@@H](CCC4(C)C)C3)n2)cc1OC(F)F [Compound 299, N2-(3-(Difluoromethoxy)-4-methoxyphenyl)-N4-((7S,8aS)-3,3-dimethyloctahydroindolizin-7-yl)-5-fluoropyrimidine-2,4-diamine]
100 to 500 nM | CC1CN(c2ccc(Nc3ncc(F)c(N[C@H]4CCN5[C@@H](CCC5(C)C)C4)n3)cc2OC(F)F)CC(C)O1 (stereo partly drawn) [Compound 300, N2-(3-(Difluoromethoxy)-4-(2,6-dimethylmorpholino)phenyl)-N4-((7S,8aS)-3,3-dimethyloctahydroindolizin-7-yl)-5-fluoropyrimidine-2,4-diamine]
500 to 1000 nM | CC1(C)CC[C@H]2C[C@@H](Nc3nc(Nc4ccc(N5CC6(COC6)C5)c(OC(F)F)c4)ncc3F)CCN21 [Compound 302, N2-(3-(Difluoromethoxy)-4-(2-oxa-6-azaspiro[3.3]heptan-6-yl)phenyl)-N4-((7S,8aS)-3,3-dimethyloctahydroindolizin-7-yl)-5-fluoropyrimidine-2,4-diamine]
100 to 500 nM | CC1(C)CC[C@H]2C[C@@H](Nc3nc(Nc4ccc(OCCO)c(OC(F)F)c4)ncc3F)CCN21 [Compound 303, 2-(2-(Difluoromethoxy)-4-((4-(((7S,8aS)-3,3-dimethyloctahydroindolizin-7-yl)amino)-5-fluoropyrimidin-2-yl)amino)phenoxy)ethan-1-ol]
100 to 500 nM | CC1(C)CC[C@H]2C[C@@H](Nc3nc(Nc4ccc(OC5CC(O)C5)c(C(F)(F)F)c4)ncc3F)CCN21 (stereo partly drawn) [Compound 305, 3-(4-((4-(((7S,8aS)-3,3-Dimethyloctahydroindolizin-7-yl)amino)-5-fluoropyrimidin-2-yl)amino)-2-(trifluoromethyl)phenoxy)cyclobutan-1-ol]
100 to 500 nM | CC1(C)CC[C@H]2C[C@@H](Nc3nc(Nc4ccc(OC5CC(O)C5)c(OC(F)F)c4)ncc3F)CCN21 (stereo partly drawn) [Compound 306, 3-(2-(Difluoromethoxy)-4-((4-(((7S,8aS)-3,3-dimethyloctahydroindolizin-7-yl)amino)-5-fluoropyrimidin-2-yl)amino)phenoxy)cyclobutan-1-ol]
100 to 500 nM | CC1(C)CC[C@H]2C[C@@H](Nc3nc(Nc4ccc(OCCCO)c(OC(F)F)c4)ncc3F)CCN21 [Compound 307, 3-(2-(Difluoromethoxy)-4-((4-(((7S,8aS)-3,3-dimethyloctahydroindolizin-7-yl)amino)-5-fluoropyrimidin-2-yl)amino)phenoxy)propan-1-ol]
500 to 1000 nM | CC1(C)CC[C@H]2C[C@@H](Nc3nc(Nc4ccc(N5CC(O)C5)c(OC(F)F)c4)ncc3F)CCN21 [Compound 308, 1-(2-(Difluoromethoxy)-4-((4-(((7S,8aS)-3,3-dimethyloctahydroindolizin-7-yl)amino)-5-fluoropyrimidin-2-yl)amino)phenyl)azetidin-3-ol]
100 to 500 nM | CC1(C)CC[C@H]2C[C@@H](Nc3nc(Nc4ccc(OC5CC(O)C5)c(Cl)c4)ncc3F)CCN21 (stereo partly drawn) [Compound 312, 3-(2-Chloro-4-((4-(((7S,8aS)-3,3-dimethyloctahydroindolizin-7-yl)amino)-5-fluoropyrimidin-2-yl)amino)phenoxy)cyclobutan-1-ol]

Same assay, conditions: human primary T cells stimulated with αCD3 and αCD28, 24 hours

EC50 | SMILES
500 to 1000 nM | Cn1nc2n(c1=O)-c1cc(Nc3ncc(F)c(N[C@@H]4C[C@@H]5CCCN5C(C)(C)C4)n3)ccc1OCC2(C)O (stereo partly drawn) [Compound 295, 5-fluoro-N2-(1H-2,3,4,5-tetrahydron-2,4-dimethyl-4-hydroxy-[1,2,4]triazolo[4,5-c][1,5]benzoxazepin-1-one-9-yl)-N4-((7R,8aS)-octahydro-5,5-dimethylindolizin-7-yl)pyrimidine-2,4-diamine]
